Measured values: US9138013B2, “Sweet flavor modifier” (SENOMYX, INC., priority 2012, dated 2015)

Tests used:
human panelists [1] = assay: Sucrose potentiation in Iced Coffee product prototype, paired comparison test; format: in vivo; details: Table 19: Iced Coffee, 8% Sucrose vs 4% Sucrose + 7.6 μM Compound K2; n = 33 (11 panelists × 3 reps)
Protocol: All samples were made in an Iced Coffee formulation consisting of Brewed Coffee, 2% milk, Sucrose and water. The samples were prepared using a 0.2% Compound stock made with 0.2% sodium bicarbonate and water. Tests samples are presented in pairs to the panelists and they are asked to determine which of the sample is sweeter.
(§1) In one paired comparison test, the panelist is presented with two different samples and asked to identify the sample which is sweeter. The samples within a paired comparison test are presented in a randomized, counterbalanced order. Panelists have up to a 1 minute delay between taste tests to clear the mouth of any tastes.
(§2) Binomial probability tables are used to determine the probability of the correct number of responses occurring for each test at alpha=0.05.

human panelists [2] = assay: Paired comparison test, sweet flavor potentiation with sucrose or HFCS as the sweetener; format: in vivo
Protocol: (§3) Test samples containing experimental compounds are presented in pairs to the panelist and they are asked to determine which of the sample is sweeter. […] A group of 10-16 or more panelists participated in each test. Subjects refrained from eating or drinking (except water) for at least 1 hour prior to the test. Subjects rinsed with water several times to clean the mouth.
(§4) Taste tests were performed with sucrose or HFCS as the sweetener in the presence or absence of compound. A 0.2% stock solution of compound in water with sodium bicarbonate was prepared and then this stock solution was diluted in the final sample to achieve the targeted final concentration of compound. For the sample evaluated at pH 2.8 the pH of the solution is decreased to about pH 2.8 using citric acid. Taste samples were also prepared in a low sodium phosphate buffer (pH 7.1; “LSB”) lacking sucrose or HFCS to evaluate the taste of the compound alone. Low sodium phosphate buffer consists of 0.3 mM KCl, 0.5 mM Na2HPO4, and 0.175 mM KH2PO4. Sample volumes are usually 20 ml.
as §1, §2

human panelists [3] = assay: Paired comparison test, taste of the compound alone in low sodium phosphate buffer (LSB); format: in vivo
Protocol: as §3, §4, §1, §2

SMILES | melting point [°C] | Sample selected as sweeter by panelists, Total (human panelists [1]) | Sample selected as sweeter by panelists, Total (human panelists [2]; Table 1-a: 12% Sucrose vs 6% Sucrose + 21 μM Compound Q1, pH 7.1, n = 30 (15 panelists × 2 reps)) | Sample selected as sweeter by panelists, Total (human panelists [2]; Table 1-b: 12% Sucrose vs 6% Sucrose + 7.9 μM Compound Q1, pH 2.8, n = 42 (14 panelists × 3 reps)) | Sample selected as sweeter by panelists, Total (human panelists [2]; Table 4-a: 12% Sucrose vs 6% Sucrose + 12.7 μM Compound J2, pH 7.1, n = 51 (17 panelists × 3 reps)) | Sample selected as sweeter by panelists, Total (human panelists [2]; Table 4-b: 12% Sucrose vs 6% Sucrose + 12.7 μM Compound J2, pH 2.8, n = 45 (15 panelists × 3 reps)) | Sample selected as sweeter by panelists, Total (human panelists [2]; Table 7-a: 11% Sucrose vs 6% Sucrose + 12.7 μM Compound K2, pH 7.1, n = 36 (12 panelists × 3 reps)) | Sample selected as sweeter by panelists, Total (human panelists [2]; Table 7-b: 12% Sucrose vs 6% Sucrose + 7.6 μM Compound K2, pH 2.8, n = 36 (18 panelists × 2 reps)) | Sample selected as sweeter by panelists, Total (human panelists [2]; Table 10: 12% Sucrose vs 6% Sucrose + 12.7 μM Compound L2, pH 7.1, n = 42 (14 panelists × 3 reps)) | Sample selected as sweeter by panelists, Total (human panelists [2]; Table 13: 12% Sucrose vs 6% Sucrose + 11.9 μM Compound B1, pH 7.1, n = 34 (17 panelists × 2 reps)) | Sample selected as sweeter by panelists, Total (human panelists [2]; Table 16: 10% Sucrose vs 6% Sucrose + 9.2 μM Compound F3, pH 7.1, n = 33 (11 panelists × 3 reps)) | Sample selected as sweeter by panelists, Total (human panelists [3]; Table 3: 1% Sucrose vs LSB + 26.3 μM Compound Q1, n = 26 (13 panelists × 2 reps)) | Sample selected as sweeter by panelists, Total (human panelists [3]; Table 6: 1% Sucrose vs LSB + 20.4 μM Compound J2, n = 26 (13 panelists × 2 reps)) | Sample selected as sweeter by panelists, Total (human panelists [3]; Table 9: 1% Sucrose vs LSB + 12.7 μM Compound K2, n = 51 (17 panelists × 2 reps)) | Sample selected as sweeter by panelists, Total (human panelists [3]; Table 12: 1% Sucrose vs LSB + 12.7 μM Compound L2, n = 36 (12 panelists × 3 reps)) | Sample selected as sweeter by panelists, Total (human panelists [3]; Table 15: 1% Sucrose vs LSB + 11.9 μM Compound B1, n = 45 (15 panelists × 3 reps)) | Sample selected as sweeter by panelists, Total (human panelists [3]; Table 18: 1% Sucrose vs LSB + 9.2 μM Compound F3, n = 30 (15 panelists × 2 reps))
NC1=NS(=O)(=O)Nc2cccc(OC[C@H]3CCCN(C(=O)c4ccncc4)C3)c21 [Example 3, (S)-(3-(((4-amino-2,2-dioxido-1H-benzo[c][1,2,6]thiadiazin-5-yl)oxy)methyl)piperidin-1-yl)(pyridin-4-yl)methanone] | > 250 | – | – | – | – | – | – | – | – | – | – | – | – | – | – | – | –
OC[C@H]1O[C@@](CO)(O[C@H]2O[C@H](CO)[C@@H](O)[C@H](O)[C@H]2O)[C@@H](O)[C@@H]1O [Sucrose, sucrose] | – | 16 | 18 | 24 | 28 | 20 | 20 | 21 | 19 | 19 | 16 | 14 | 14 | 29 | 19 | 19 | 16
